PMC10458698, “Characterization of the interferences of systemic azole antifungal drugs with adrenal steroid biosynthesis using H295R cells and enzyme activity assays” (Current Research in Toxicology, 2023)
pIC50: −log10 of the molar value.

Tests used:
CYP11A1 = target: T1, CYP11A1 (Homo sapiens, UniProt P05108); assay: CYP11A1 assay based on mitochondrial fraction of V79-4 cells; type: biochemical; settings: 10 µM, 20S-hydroxycholesterol 2 µM, 4 h, qualitative, assay of low sensitivity
T1 construct: host or cells: V79-4 cells (Chinese hamster), transient transfection, mitochondrial fraction
T1 sequence (P05108 40-521): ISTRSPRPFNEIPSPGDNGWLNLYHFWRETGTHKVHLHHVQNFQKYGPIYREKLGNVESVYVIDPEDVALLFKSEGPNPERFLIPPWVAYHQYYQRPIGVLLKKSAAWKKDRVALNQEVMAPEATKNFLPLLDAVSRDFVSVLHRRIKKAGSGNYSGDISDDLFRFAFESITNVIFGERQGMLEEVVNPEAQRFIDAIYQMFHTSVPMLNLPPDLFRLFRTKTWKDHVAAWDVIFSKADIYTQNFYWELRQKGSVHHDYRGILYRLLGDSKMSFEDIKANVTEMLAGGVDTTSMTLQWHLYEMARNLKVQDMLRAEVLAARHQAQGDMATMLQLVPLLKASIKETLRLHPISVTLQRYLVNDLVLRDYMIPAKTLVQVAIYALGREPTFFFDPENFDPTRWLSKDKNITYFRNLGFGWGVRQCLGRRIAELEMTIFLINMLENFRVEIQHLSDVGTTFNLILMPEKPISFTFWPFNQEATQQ
Method: Mitochondria were prepared as described previously with modifications ([Frezza et al., 2007]). Briefly, V79-4 cells (3,000,000) were seeded 4 h prior to transfection with 4 µg of expression plasmid for CYP11A1 and adrenodoxin (GeneScript Piscataway, USA, clone IDs OHu18602D and OHu55929D) using polyethylemine (PEI) in a PEI/DNA ratio of 3:1 (w/w). At 4 h post-transfection, medium was changed and cells were incubated overnight. Cells were collected in ice cold phosphate buffered saline (PBS) and centrifuged at 600 × g for 10 min at 4 °C. The pellet was resuspended in ice cold isolation buffer (10 mM Tris/MOPS, pH 7.4, 1 mM EGTA/Tris, pH 7.4, 200 mM sucrose in water) and transferred to a glass potter, followed by 35 S using a 2 cm^3 glass Teflon pestle. The homogenate was centrifuged for 10 min at 600 × g and 4 °C. The supernatant was collected and centrifuged for 10 min at 7000 × g at 4 °C. The pellet was washed and resuspended in 200 μL ice cold isolation buffer. After centrifugation, the pellet containing the mitochondrial fraction was resuspended in 30 μL reaction buffer (25 mM HEPES pH 7.4, 0.1 mM DTT, 0.1 mM EDTA, 4 mM MgCl2) and the protein content was determined by the BCA assay according to the manufacturer (Pierce BCA protein assay kit, Thermo Scientific, Rockford, USA). Bovine serum albumin provided with the kit was used as reference protein and absorbance was measured using a BioTek Cytation5 Imaging Reader (Agilent BioTek).
For the CYP11A1 activity assay, 500 µg/mL of freshly prepared mitochondrial fraction were pre-incubated on ice with reaction buffer, 1 mM NADPH and either vehicle (0.1% DMSO), 10 µM of the positive control ketoconazole ([Mast et al., 2013]) or the triazole antifungals for 10 min. The reaction was started by adding the substrate 20S-hydroxycholesterol at a final concentration of 2 µM in a reaction volume of 50 µL. After 4 h of incubation at 37 °C, the reaction was stopped by adding 50 µL methanol and shock-freezing in liquid nitrogen. Samples were stored at −80 °C until sample preparation for pregnenolone detection using an ELISA kit (Alpco, Salem, USA). Sample preparation included evaporation of samples to dryness, reconstitution in 6 µL methanol and 1:25 (v:v) dilution in water. The ELISA was performed according to the manufacturer and absorbance was measured using a BioTek Citation5 imaging reader.

CYP11B1 = test system: CYP11B1; parameters: method as in Beck et al., 2020a; settings: ref Beck et al., 2020a; cited from earlier work

| Structure (SMILES) | inhibition of CYP11A1 activity (CYP11A1) | pIC50 (CYP11B1) |
| --- | --- | --- |
| C[C@@H](c1nc(-c2ccc(C#N)cc2)cs1)[C@](O)(Cn1cncn1)c1cc(F)ccc1F [isavuconazole] | comparable to ketoconazole | 5.52 |
| CCC(C)n1ncn(-c2ccc(N3CCN(c4ccc(OCC5COC(Cn6cncn6)(c6ccc(Cl)cc6Cl)O5)cc4)CC3)cc2)c1=O (stereo not drawn) [itraconazole] | very weak inhibitory activity | 6.36 |
| CC[C@@H]([C@H](C)O)n1ncn(-c2ccc(N3CCN(c4ccc(OC[C@@H]5CO[C@@](Cn6cncn6)(c6ccc(F)cc6F)C5)cc4)CC3)cc2)c1=O [posaconazole, Posaconazole] | very weak inhibitory activity | 7.22 |
